Source: PubChem BioAssay (NCI)
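Protocol summary: plate cells (96-well), add compound at 5 concentrations, incubate 48 h, interpolate endpoints linearly. At the GI50, growth is halved. TGI: total growth inhibition.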

What was measured:
Test in all cases: NCI anticancer screen, dose series, 48 h
SW-620 colon = test system: SW-620 colon
ACHN renal = test system: ACHN renal
OVCAR-5 ovarian = test system: OVCAR-5 ovarian
SF-539 CNS = test system: SF-539 CNS
IGROV1 ovarian = test system: IGROV1 ovarian
OVCAR-8 ovarian = test system: OVCAR-8 ovarian
COLO 205 colon = test system: COLO 205 colon
K-562 leukemia = test system: K-562 leukemia
UACC-62 melanoma = test system: UACC-62 melanoma
NCI-H23 lung = test system: NCI-H23 lung

| Compound | GI50 (SW-620 colon) [µM] | TGI (SW-620 colon) [µM] | GI50 (ACHN renal) [µM] | TGI (ACHN renal) [µM] | GI50 (OVCAR-5 ovarian) [µM] | TGI (OVCAR-5 ovarian) [µM] | GI50 (SF-539 CNS) [µM] | GI50 (IGROV1 ovarian) [µM] | TGI (IGROV1 ovarian) [µM] | GI50 (OVCAR-8 ovarian) [µM] | TGI (OVCAR-8 ovarian) [µM] | GI50 (COLO 205 colon) [µM] | TGI (COLO 205 colon) [µM] | GI50 (K-562 leukemia) [µM] | TGI (K-562 leukemia) [µM] | GI50 (UACC-62 melanoma) [µM] | TGI (UACC-62 melanoma) [µM] | GI50 (NCI-H23 lung) [µM] | TGI (NCI-H23 lung) [µM] | TGI (SF-539 CNS) [µM] |
| --- | --- | --- | --- | --- | --- | --- | --- | --- | --- | --- | --- | --- | --- | --- | --- | --- | --- | --- | --- | --- |
| CCN(CC)c1ccc(/C=N/NC(=O)c2ccccc2Nc2ccnc(C(F)(F)F)c2)c(O)c1 | 0.407 | > 100 | 0.0834 | > 24.6 | 0.377 | > 100 | 0.248 | 0.0747 | 71.4 | 0.22 | > 100 | 0.212 | > 100 | 0.384 | > 100 | 0.206 | 0.852 | 0.528 | > 100 |  |
| C#CCN(Cc1nc2cc(C(F)(F)F)ccc2nc1-c1ccccc1)c1ccc(F)cc1 | 26.4 | > 100 | 36 | > 100 | 75.6 | > 100 | 37.4 | 23.1 | > 100 | 29.4 | > 100 | 13.8 | 50.5 | 19.5 | > 100 | 25.5 | > 100 | > 100 | > 100 | > 100 |
| CN1CCN(Cc2ccc(NC(=O)c3cccc(C#Cc4c(N)ncc5ccc(F)cc45)c3)cc2C(F)(F)F)CC1 | 0.645 | 1.39 | 0.509 | 1.1 | 0.849 | 1.76 | 0.548 | 0.597 | 1.4 | 1.03 | 2.56 | 0.737 | 1.66 | 0.005 | 0.674 | 0.698 | 1.4 | 0.865 | 1.67 | 1.19 |
| C[C@H](C(O)CC(=O)C(C)(C)O)[C@H]1CC[C@@]2(C)[C@@H]3CC[C@H]4C(C)(C)[C@@H](OC5OC(COC6OC(CO)C(O)C(O)C6O)C(O)C(O)C5O)CC[C@]4(C)C3=CC[C@]12C (stereo partly drawn) |  | > 100 |  | > 100 |  | > 100 |  |  | > 100 |  | > 100 |  | > 100 |  | > 100 |  | > 100 |  | > 100 | > 100 |
| CCCCCN(CCCCC)C(=O)[C@H](CCC(=O)OCc1ccccc1)NC(=O)c1cc2ccccc2[nH]1 |  | > 100 |  | > 100 |  | > 100 |  |  | > 100 |  | > 100 |  | > 100 |  | > 100 |  | > 100 |  | > 100 | > 100 |
| COC(=O)c1ccc(/C=C/S(=O)(=O)c2ccccc2)cc1 |  | > 100 |  | > 100 |  | > 100 |  |  | > 100 |  | > 100 |  | > 100 |  | > 100 |  | > 100 |  | > 100 | > 100 |
| CCCCCCCCCCCCC(NC(C)=O)(C(=O)OCC)C(=O)OCC | 13 | 26.9 | 12.6 | 25.3 | 13.7 | 27.3 | 16 | 12.6 | 37.2 | 12.7 | 32.3 | 12.8 | 26.3 | 7.55 | > 100 | 4.88 | 19.6 | 10.8 | 24.8 | 33.1 |
| N#Cc1ccc(NC(=O)Nc2nc3ccc(OC(F)(F)F)cc3s2)cc1 | 1.61 | 12 | 0.732 | 7.05 | 4.28 | 16.1 | 2.9 | 2 | 16.1 | 2 | 9.91 | 1.68 | 3.9 | 0.534 | 26.1 | 0.737 | 3.87 | 0.581 | 6.02 | 10.1 |
| COC1C(O)CC(OC2CC(OC3CC(O[C@@H]4C(=O)c5c(cc6cc(OC7CC(OC8CC(O)C(O)C(C)O8)C(O)C(C)O7)c(C)c(O)c6c5O)CC4[C@H](OC)[C@@H](O)C(C)=O)OC(C)C3O)OC(C)C2O)OC1C (stereo partly drawn) | 0.0125 | > 33.3 | 0.025 |  | 0.0309 | > 33.3 | 0.00902 | 0.0197 | > 33.3 | 0.0217 | > 33.3 | 0.0113 | 0.0639 | 0.0163 | > 33.3 | 0.00977 | 0.036 | 0.00333 | 1.12 | 0.463 |
| C/C=C(\C)C(=O)N1c2ccccc2CC1c1c(C)[nH]c2ccccc12 (stereo not drawn) |  | > 100 |  | > 100 |  | > 100 |  |  | > 100 |  | > 100 |  | 74.5 |  | > 100 |  | > 100 |  | > 100 | > 100 |
| Cc1ccccc1C[P+](c1ccccc1)(c1ccccc1)c1ccccc1 | 2.33 | > 100 | 7.28 | > 100 | 2.86 | > 100 | 2.34 | 2.42 | > 100 | 1.48 | > 100 | 1.16 | 3.28 | 0.786 | > 100 | 0.757 | 31.6 | 1.97 | > 100 | > 100 |
| CN1CCN(c2ccc(-c3cccc(CN4CCOCC4)c3)cc2NC(=O)c2c[nH]c(=O)cc2C(F)(F)F)CC1 | 33.6 | > 100 | 40.4 | > 100 | > 100 | > 100 | 19.5 | 60.7 | > 100 | 48.7 | > 100 | 17.8 | > 100 | 22.1 | 51 | 60.1 | > 100 | > 100 | > 100 | 44.7 |
| COc1ccccc1N1CCN(CCCOc2ccc(C(=O)/C=C3/C(=O)Nc4ccccc43)cc2)CC1 | 12.6 | 25.5 | 15.9 | > 77.6 | 16.6 | 59.9 | 15.8 | 12.1 | 37.6 | 12 | 55.5 | 12.7 | 33.2 | 3.51 | > 34.8 | 11.9 | 28.4 | 6.19 | 38.6 | 40.4 |
| CC(C)(C)C1CCC(=O)C(C(O)CC2CC(=O)N(c3ccccc3)C(=O)C2)C1 (stereo not drawn) |  | > 100 |  | > 100 |  | > 100 |  |  | > 100 |  | > 100 |  | > 100 |  | > 100 |  | > 100 |  | > 100 | > 100 |
| COC(=O)C1=C(O)c2cc3c(cc2[C@H](c2cc(OC)c(OC)c(OC)c2)C1)OCO3 |  | > 100 |  | > 100 |  | > 100 |  |  | 89.4 |  | > 100 |  | 34.7 |  | > 100 |  | 27.9 |  | > 100 | > 100 |
